In patent publication US8466098B2, “Washing agent having stabilized enzymes” (Henkel AG & Co. KGaA, priority 2007, dated 2013):

Molecular target: T1, Bacillus lentus alkaline protease F49 (Lederbergia lenta, UniProt P29599, A188P/L211D/S3T/V193M/V199I)
T1 sequence (P29599 with tags, fused parts or gaps A188P/V193M/V199I/L211D limits assumed): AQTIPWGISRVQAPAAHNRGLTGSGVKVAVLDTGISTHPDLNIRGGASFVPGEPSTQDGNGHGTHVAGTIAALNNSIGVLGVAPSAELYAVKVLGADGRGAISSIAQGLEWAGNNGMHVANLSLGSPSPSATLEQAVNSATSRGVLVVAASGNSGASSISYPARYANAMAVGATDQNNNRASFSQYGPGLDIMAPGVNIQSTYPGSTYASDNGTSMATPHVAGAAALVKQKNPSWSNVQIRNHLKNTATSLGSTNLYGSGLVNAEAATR
Experiment: Residual protease activity in the presence of an inhibitor (AAPFpNA substrate)
Type: biochemical
Settings: compound 10 mM final concentration; incubation 5 min at pH 8.6 and 25° C.; batch without compound set at 100%
Description: In parallel reaction batches, the succinyl-alanine-alanine-proline-phenylalanine-para-nitroanilide substrate (AAPFpNA; Bachem L-1400) and 5×10^−9 or 1×10^−8 M of the protease were prepared in 100 mM BrijTM35 Tris buffer, […], 0.1% (w/v). The compounds to be tested (listed below) were added at a final concentration of 10 mM. They were each dissolved in anhydrous DMSO, the effects of DMSO on enzymatic activity having been corrected via the corresponding reference having the same quantity of DMSO but without the relevant compound. Incubation occurred for 5 min at pH 8.6 and 25° C. The corresponding reaction mixture with protease, but without the relevant compound, served as a comparison. The protease activity in these comparison batches was set at 100%.

| Structure (SMILES) | residual protease activity |
| --- | --- |
| O=P(O)(OCc1ccccc1)OCc1ccccc1 [V2, dibenzyl phosphate] | 56% |
| CCCCOP(=O)(O)OCCCC [V1, dibutyl phosphate] | 45% |
